In patent publication US20040006070A1, “Intraspinal continuous infusion of midazolam hydrochloride for the treatment of pain” (priority 2002, published 2004):
Where a name gives a salt, the structure may show the parent alone.

Assay: Bloodwork: complete blood count, electrolytes, extended blood chemistry
Assay type: in vivo, sheep
Protocol: Indirect blood pressure, pulse recording, pain testing (mechanical stimulus device, cold and warm water baths see description in procedure) and weight were taken on days 1, 3, 7, 15, 22, 29, 36, and 43. Venous blood samples (15 ml drawn from the jugular vein with Vacutainer brand blood collection tubes) for complete blood count, electrolytes, and extended blood chemistry were drawn on days 1, 15, and 43 (mild procedure only light hand restraint necessary).

[1] = sheep #84 Roadrunner, 15 mg/day, Day 1
[2] = sheep #84 Roadrunner, 15 mg/day, Day 15
[3] = sheep #84 Roadrunner, 15 mg/day, Day 43

In the case of `Cc1ncc2n1-c1ccc(Cl)cc1C(c1ccccc1F)=NC2` [Midazolam, midazolam hydrochloride], the “Total Bili” value [1] is reported as 0.3 mg/dL, the “Total Prot” value [1] is reported as 5.9 g/dL and the WBC [1] is reported as 5390 µL⁻¹. The ALT [2] was 2 U/L, the AST [2] was 60 U/L and the Albumin [2] was 3.7 g/dL. The “Alk Phos” value [2] was 98 U/L, the BUN [2] was 11 mg/dL and the CPK [2] was 53 U/L. For the same compound, the Cholesterol [2] was 56 mg/dL, the Creatinine [2] was 1.3 mg/dL and the “Differential Count: Eosin” value [2] was 12%. For the same compound, the “Differential Count: Lymph” value [2] was 44%, the “Differential Count: Seg” value [2] was 44% and the “Gamma GT” value [2] was 62 U/L. It also gave a Glucose [2] of 66 mg/dL, a Hct [2] of 31.8% and a Hgb [2] of 10.8 g/dL. The “K+” value [2] was 4.8 mEq/l, the MCH [2] was 10.8 pg and the MCHC [2] was 34.0 g/dL. For the same compound, the MCV [2] was 31.8 fL, the “Na+” value [2] was 150 mEq/l and the Phos [2] was 6.6 mg/dL. The “Platlet Count” value [2] was 848000 µL⁻¹, the RBC [2] was 1e+07 µL⁻¹ and the “Total Bili” value [2] was 0.1 mg/dL. For the same compound, the “Total Prot” value [2] was 6.4 g/dL, the WBC [2] was 5130 µL⁻¹ and the ALT [3] was 7 U/L. The AST [3] was 65 U/L, the Albumin [3] was 3.54 g/dL and the “Alk Phos” value [3] was 143 U/L. It also gave a BUN [3] of 11 mg/dL, a CPK [3] of 102 U/L and a Cholesterol [3] of 57 mg/dL. For the same compound, the Creatinine [3] was 1.2 mg/dL, the “Differential Count: Atyp lym” value [3] was 1% and the “Differential Count: Eosin” value [3] was 2%. The “Differential Count: Lymph” value [3] was 67%, the “Differential Count: Mono” value [3] was 1% and the “Differential Count: Seg” value [3] was 29%. The “Gamma GT” value [3] was 56 U/L, the Glucose [3] was 74 mg/dL and the Hct [3] was 35.0%. For the same compound, the Hgb [3] was 11.9 g/dL, the “K+” value [3] was 4.6 mEq/l and the MCH [3] was 11.8 pg. The MCHC [3] was 34.0 g/dL, the MCV [3] was 34.7 fL and the “Na+” value [3] was 149 mEq/l. The Phos [3] was 7.1 mg/dL, the “Platlet Count” value [3] was 727000 µL⁻¹ and the RBC [3] was 1.01e+07 µL⁻¹. For the same compound, the “Total Bili” value [3] was 0.1 mg/dL, the “Total Prot” value [3] was 6.0 g/dL and the WBC [3] was 5150 µL⁻¹. For the same compound, the ALT (sheep #85, 15 mg/day, Day 1) was 7 U/L, the AST (sheep #85, 15 mg/day, Day 1) was 76 U/L and the “Alk Phos” value (sheep #85, 15 mg/day, Day 1) was 50 U/L. The BUN (sheep #85, 15 mg/day, Day 1) was 10 mg/dL, the CPK (sheep #85, 15 mg/day, Day 1) was 99 U/L and the Cholesterol (sheep #85, 15 mg/day, Day 1) was 52 mg/dL. For the same compound, the “Differential Count: Baso” value (sheep #85, 15 mg/day, Day 1) was 1%, the “Differential Count: Eosin” value (sheep #85, 15 mg/day, Day 1) was 1% and the “Differential Count: Lymph” value (sheep #85, 15 mg/day, Day 1) was 22%. The “Differential Count: Mono” value (sheep #85, 15 mg/day, Day 1) was 1%, the “Differential Count: Seg” value (sheep #85, 15 mg/day, Day 1) was 75% and the “Gamma GT” value (sheep #85, 15 mg/day, Day 1) was 68 U/L. The Glucose (sheep #85, 15 mg/day, Day 1) was 75 mg/dL, the Hct (sheep #85, 15 mg/day, Day 1) was 28.0% and the Hgb (sheep #85, 15 mg/day, Day 1) was 9.2 g/dL. The MCH (sheep #85, 15 mg/day, Day 1) was 10.7 pg, the MCHC (sheep #85, 15 mg/day, Day 1) was 32.8 g/dL and the MCV (sheep #85, 15 mg/day, Day 1) was 32.7 fL. The “Na+” value (sheep #85, 15 mg/day, Day 1) was 149 mEq/l, the “Platlet Count” value (sheep #85, 15 mg/day, Day 1) was 994000 µL⁻¹ and the RBC (sheep #85, 15 mg/day, Day 1) was 8.57e+06 µL⁻¹. For the same compound, the WBC (sheep #85, 15 mg/day, Day 1) was 4780 µL⁻¹, the “Total Bili” value (sheep #85, 15 mg/day, Day 1, ref 0.14-0.32) was 0.1 mg/dL and the Creatinine (sheep #85, 15 mg/day, Day 1, ref 1-2.7) was 1.4 mg/dL. For the same compound, the Albumin (sheep #85, 15 mg/day, Day 1, ref 2.4-3) was 3.4 g/dL, the “K+” value (sheep #85, 15 mg/day, Day 1, ref 3.9-5.4) was 4.7 mEq/l and the Phos (sheep #85, 15 mg/day, Day 1, ref 5-7.3) was 5.3 mg/dL. The “Total Prot” value (sheep #85, 15 mg/day, Day 1, ref 6-7.9) was 6.1 g/dL, the ALT (sheep #85, 15 mg/day, Day 15) was 10 U/L and the AST (sheep #85, 15 mg/day, Day 15) was 56 U/L. For the same compound, the “Alk Phos” value (sheep #85, 15 mg/day, Day 15) was 54 U/L, the BUN (sheep #85, 15 mg/day, Day 15) was 17 mg/dL and the CPK (sheep #85, 15 mg/day, Day 15) was 56 U/L. For the same compound, the Cholesterol (sheep #85, 15 mg/day, Day 15) was 58 mg/dL, the “Differential Count: Eosin” value (sheep #85, 15 mg/day, Day 15) was 12% and the “Differential Count: Lymph” value (sheep #85, 15 mg/day, Day 15) was 44%. The “Differential Count: Seg” value (sheep #85, 15 mg/day, Day 15) was 44%, the “Gamma GT” value (sheep #85, 15 mg/day, Day 15) was 54 U/L and the Hct (sheep #85, 15 mg/day, Day 15) was 31.8%. For the same compound, the Hgb (sheep #85, 15 mg/day, Day 15) was 10.8 g/dL, the MCH (sheep #85, 15 mg/day, Day 15) was 10.8 pg and the MCHC (sheep #85, 15 mg/day, Day 15) was 34.0 g/dL. The MCV (sheep #85, 15 mg/day, Day 15) was 31.8 fL, the “Na+” value (sheep #85, 15 mg/day, Day 15) was 148 mEq/l and the “Platlet Count” value (sheep #85, 15 mg/day, Day 15) was 848000 µL⁻¹. For the same compound, the RBC (sheep #85, 15 mg/day, Day 15) was 1e+07 µL⁻¹, the WBC (sheep #85, 15 mg/day, Day 15) was 5130 µL⁻¹ and the “Total Bili” value (sheep #85, 15 mg/day, Day 15, ref 0.14-0.32) was 0.0 mg/dL. The Creatinine (sheep #85, 15 mg/day, Day 15, ref 1-2.7) was 1.2 mg/dL, the Albumin (sheep #85, 15 mg/day, Day 15, ref 2.4-3) was 2.8 g/dL and the “K+” value (sheep #85, 15 mg/day, Day 15, ref 3.9-5.4) was 5.0 mEq/l. For the same compound, the Phos (sheep #85, 15 mg/day, Day 15, ref 5-7.3) was 6.0 mg/dL, the “Total Prot” value (sheep #85, 15 mg/day, Day 15, ref 6-7.9) was 5.4 g/dL and the ALT (sheep #85, 15 mg/day, Day 43) was 8 U/L. For the same compound, the AST (sheep #85, 15 mg/day, Day 43) was 59 U/L, the “Alk Phos” value (sheep #85, 15 mg/day, Day 43) was 92 U/L and the BUN (sheep #85, 15 mg/day, Day 43) was 13 mg/dL. The CPK (sheep #85, 15 mg/day, Day 43) was 81 U/L, the Cholesterol (sheep #85, 15 mg/day, Day 43) was 72 mg/dL and the “Differential Count: Eosin” value (sheep #85, 15 mg/day, Day 43) was 4%. For the same compound, the “Differential Count: Lymph” value (sheep #85, 15 mg/day, Day 43) was 75%, the “Differential Count: Mono” value (sheep #85, 15 mg/day, Day 43) was 3% and the “Differential Count: Seg” value (sheep #85, 15 mg/day, Day 43) was 18%. The “Gamma GT” value (sheep #85, 15 mg/day, Day 43) was 60 U/L, the Glucose (sheep #85, 15 mg/day, Day 43) was 76 mg/dL and the Hct (sheep #85, 15 mg/day, Day 43) was 34.7%. The Hgb (sheep #85, 15 mg/day, Day 43) was 11.9 g/dL, the MCH (sheep #85, 15 mg/day, Day 43) was 12.6 pg and the MCHC (sheep #85, 15 mg/day, Day 43) was 34.1 g/dL. The MCV (sheep #85, 15 mg/day, Day 43) was 36.8 fL, the “Na+” value (sheep #85, 15 mg/day, Day 43) was 148 mEq/l and the “Platlet Count” value (sheep #85, 15 mg/day, Day 43) was 604000 µL⁻¹. The RBC (sheep #85, 15 mg/day, Day 43) was 9.44e+06 µL⁻¹, the WBC (sheep #85, 15 mg/day, Day 43) was 3130 µL⁻¹ and the “Total Bili” value (sheep #85, 15 mg/day, Day 43, ref 0.14-0.32) was 0.1 mg/dL. The Creatinine (sheep #85, 15 mg/day, Day 43, ref 1-2.7) was 1.3 mg/dL, the Albumin (sheep #85, 15 mg/day, Day 43, ref 2.4-3) was 3.6 g/dL and the “K+” value (sheep #85, 15 mg/day, Day 43, ref 3.9-5.4) was 4.9 mEq/l. For the same compound, the Phos (sheep #85, 15 mg/day, Day 43, ref 5-7.3) was 7.1 mg/dL, the “Total Prot” value (sheep #85, 15 mg/day, Day 43, ref 6-7.9) was 6.4 g/dL and the ALT (sheep #91, 15 mg/day, Day 1) was 7 U/L. For the same compound, the AST (sheep #91, 15 mg/day, Day 1) was 61 U/L, the “Alk Phos” value (sheep #91, 15 mg/day, Day 1) was 132 U/L and the BUN (sheep #91, 15 mg/day, Day 1) was 9 mg/dL. The CPK (sheep #91, 15 mg/day, Day 1) was 52 U/L, the Cholesterol (sheep #91, 15 mg/day, Day 1) was 47 mg/dL and the “Differential Count: Eosin” value (sheep #91, 15 mg/day, Day 1) was 1%. The “Differential Count: Lymph” value (sheep #91, 15 mg/day, Day 1) was 21%, the “Differential Count: Mono” value (sheep #91, 15 mg/day, Day 1) was 2% and the “Differential Count: Seg” value (sheep #91, 15 mg/day, Day 1) was 76%. The “Gamma GT” value (sheep #91, 15 mg/day, Day 1) was 51 U/L.
